# Measured values from patent US5393747A, “Substituted dibenzoxazepine compounds for the treatment of convulsions, ischemia and other diseases responsive to prostaglandin-E2 antagonists” (G. D. Searle & Co., priority 1993, dated 1995).
# Entries after “also recorded” stand apart in the source; their conditions may differ. Where two headings read alike, the source gives them in different places.
# Columns and labels:
# [1] = target: T1, prostaglandin E2-induced contractions of segments of guinea pig ileum (Cavia porcellus, UniProt A0A286XHJ6); assay: Prostaglandin (PGE) Antagonism Assay in guinea pig ileum; parameters: key to PGE antagonism in guinea pig ileum, activity: Active: A concentration of test compound was determined to be "active" if it produced a dose ratio significantly greater than that obtained in a series of blank treatments; settings: for Kb: Schild plot, guinea pig ileum, 37° C., read-out: PGE antagonism in guinea pig ileum (pA2) (converted); for PGE antagonism in guinea pig ileum, activity: initial concentration of test compound
# T1 construct: The ileums were then quickly removed from the guinea pigs; from tissue; host or cells: guinea pig ileum segments (male albino guinea pigs)
# T1 sequence (A0A286XHJ6 1-405): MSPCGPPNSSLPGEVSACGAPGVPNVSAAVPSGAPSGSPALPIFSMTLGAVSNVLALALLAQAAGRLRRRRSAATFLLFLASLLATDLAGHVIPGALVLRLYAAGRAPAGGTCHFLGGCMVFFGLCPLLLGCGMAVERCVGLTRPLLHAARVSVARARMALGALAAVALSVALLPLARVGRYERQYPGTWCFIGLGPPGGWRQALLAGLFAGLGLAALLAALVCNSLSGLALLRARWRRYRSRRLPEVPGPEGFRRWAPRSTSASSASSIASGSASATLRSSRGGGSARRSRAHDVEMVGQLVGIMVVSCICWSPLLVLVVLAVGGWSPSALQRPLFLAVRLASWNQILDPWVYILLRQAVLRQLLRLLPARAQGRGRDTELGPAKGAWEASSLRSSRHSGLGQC
# Procedure: In order to determine the effectiveness of several of the compounds of the present invention ("test compounds") as prostaglandin E2 antagonists,a prostaglandin antagonism assay was conducted, as described below, to determine the ability of these compounds to inhibit prostaglandin E2 -induced contractions of segments of guinea pig ileum.
# Male albino guinea pigs weighing 200 to 500 grams were sacrificed by cervical dislocation.
# The ileums were then quickly removed from the guinea pigs and placed in a modified Tyrode solution, a solution which is known to those of skill in the art, containing one-half of the usual amount of magnesium ions.
# Segments of ileum about 2 cm long were then cut and mounted in a 10-mL tissue bath containing the modified Tyrode solution. The solution was maintained at 37° C. and aerated with a gaseous mixture of 95% oxygen and 5% carbon dioxide.
# Submaximal contractions of the ileum segments were then generated by injecting prostaglandin E2 into the bath, and detected isotonically. Data for a control prostaglandin E2 dose response curve plotting concentration of prostaglandin E2 versus number of contractions generated was then obtained by experimentally adjusting the dose of the prostaglandin E2 being injected into the tissue bath, in a manner known by those of skill in the art.
# Solutions or suspensions containing an initial amount of a test compound in modified Tyrode solution ("test solutions/suspensions") were then separately substituted for the tissue bath. Each test solution/suspension was then kept in constant contact with the ileum tissue, except for brief periods to drain the bath in preparation for rinsing with fresh test solution/suspension. Different doses of prostaglandin E2 were again injected into the test solutions/suspensions.
# A second prostaglandin E2 dose response curve was then generated for PGE2 in the presence of a test compound.
# A dose ratio of EC50 doses (that dose of a compound or drug which is necessary to elicit a 50% maximal biological response and, thus, which is necessary to elicit a 50% reduction in the contractions of the guinea pig ileum segments in this assay) was then calculated from the results of each test in a manner known by those of skill in the art. […] Duplicate tests were conducted on each concentration of test compound.
# If the initial concentration of a test compound was determined to be "active," then varying concentrations of the test compound were then assayed. As is shown in Table I below, all test compounds analyzed in this assay were determined to be "active" as prostaglandin E2 antagonists at the initial concentration.
# The pA2 value (a statistical constant which is a common measure of expressing the potency of a particular drug as a competitive antagonist) was then calculated for each test compound by schild plot calculations, as described by H. O. Schild, "pA, A New Scale for the Measurement of Drug Antagonism," Br. J. Pharmacol, 2, 189 (1947), according to the following mathematical formula: […]
# to quantitate the effectiveness of the test compounds as prostaglandin E2 antagonists.
# The compounds of the present invention which were tested in this assay, and for which results are presented in Table I, correspond to the particular examples specified in Table I.
# mice = assay: Writhing Assay (PBQ-induced writhing, analgesic activity); type: in vivo, mouse (Charles River male albino); settings: for rank order of potency in the Writhing Assay: more potent compounds of the invention
# Source text: The Writhing Assay is one of the most widely-used experimental procedures for measuring the analgesic activity of different narcotic and nonnarcotic analgesic agents, and involves the continuous, chemically-induced pain of visceral origin to an animal, such as a mouse or rat. [Gyires et al., Arch. int. Pharmacodyn, 267, 131-140 (1984); C. Vander Wende et al., Fed. Proc., 15, 494 (1956); Koster et al., Fed. Proc., 18, 412 (1959); and Witken et al., J. Pharmacol. exp. Ther., 133, 400-408 (1961).] Chemicals which may be used to induce this pain include phenylbenzoquinone (PBQ) and acetic acid. As a result of the chemical irritation to the animal, a characteristic stretching and writhing of the animal (dorsiflexion of the animal's back, extension of its hindlimbs and the strong contraction of its abdominal musculature) will generally occur. […] Drugs which reduce the number of writhes of the animal appear to restore the normal nociceptive threshold of the animal.
# Charles River male albino mice, weighing 20 to 30 grams were used in this assay.
# Thirty minutes after subcutaneous or intragastric administration to ten mice of either 10 mg or 30 mg per kilogram of body weight of a compound of the present invention ("test compound"), […] of body weight of a 0.025% w/v solution of PBQ was injected intraperitoneally into each mouse. Ten mice which were given saline in place of a test compound of the invention were used as a control group.
# Five minutes later, each mouse was individually placed into a glass beaker for observation, and the number of writhes occurring during the following ten-minute period was counted.
# A test compound was considered to have produced analgesia in a mouse if, in accordance with the conditions set forth above, and under the test criteria employed for this assay, after the administration of 10 or 30 mg per kilogram of body weight of a compound of the present invention to the mouse, the number of writhes elicited by a mouse injected with PBQ was equal to, or less than, one-half the median number of writhes recorded for the saline-treated control group of mice that day, as described by Taber in "Predictive Value of Analgesic Assays in Mice and Rats," Advances in Biochemical Psychopharmacology, 8, 191 (1974).
# The results for the particular compounds of the present invention analyzed in this assay, and discussed in the examples identified below which correspond thereto, are presented in Table I below.
# The standard initial screening doses of a test compound employed in this assay were 10 and/or […] of body weight for both routes of administration. If these initial screening doses of the test compound produced analgesia in seven of ten mice, then the effect of additional doses of the test compound on the writhing response was evaluated, and then the ED50 dose was generally calculated. (The slopes of the dose-response curves for all test compounds analyzed were compared as described by Tallarida and Murray, Manual of Pharmacologic Calculations, Page 11 (Springer Verlag, N.Y., 1981)).
# [2] = system: isolated smooth muscle preparations; settings: cited from earlier work
# [3] = system: micturition of urethane-anesthetized rats; settings: cited from earlier work
# [4] = po, mouse, intragastric, read-out: PBQ writhing assay ED50, I.G.
# [5] = Mus musculus, po, read-out: PBQ writhing assay ED50, I.G.
Kb [1],"PGE antagonism in guinea pig ileum, activity [1]",Compound,rank order of potency in the Writhing Assay (mice),also measured
79.4 nM,Active,"O=C(Cc1cccs1)NCCC(=O)NNC(=O)N1Cc2ccccc2Oc2ccc(Cl)cc21 [Example 5, 8-chlorodibenz[b,f][1,4]oxazepine-10(11H)-carboxylic acid, 2-[1-oxo-3-[(2-thienylacetyl)amino]propyl]hydrazide]",,effectiveness as prostaglandin E2 antagonist relative to prostaglandin antagonists reported in the literature ([1]; compared with literature prostaglandin E2 antagonists): more than three to four times more effective
2510 nM,Active,"CC(C)(C)OC(=O)NCCC(=O)NNC(=O)N1Cc2ccccc2Oc2ccc(Cl)cc21 [Example 7, 8-chlorodibenz[b,f][1,4]oxazepine-10(11H)-carboxylic acid, 2-[3-[[(1,1-dimethylethoxy)carbonyl]amino]-1-oxopropyl]hydrazide]",,
100 nM,Active,"O=C(CCNC(=O)Nc1ccc(C(F)(F)F)cc1)NNC(=O)N1Cc2ccccc2Oc2ccc(Cl)cc21 [Example 10, 8-chlorodibenz[b,f][1,4]oxazepine-10(11H)-carboxylic acid, 2-[1-oxo-3-[[[[(4-trifluoromethyl)phenyl]amino]carbonyl]amino]propyl]hydrazide]",,
794 nM,Active,"CS(=O)(=O)NCCC(=O)NNC(=O)N1Cc2ccccc2Oc2ccc(Cl)cc21 [Example 11, 8-chlorodibenz[b,f][1,4]oxazepine-10(11H)-carboxylic acid, 2-[3-[(methylsulfonyl)amino]-1-oxopropyl]hydrazide]",Example 20>Example 27>Example 12>Example 11>Example 28,"ED50 (mice; [4]): 9.7 mg/kg; ED50 (mice; sc, mouse, subcutaneous, read-out: PBQ writhing assay ED50, S.C.): 3 mg/kg"
,,"CNC(=O)NCCC(=O)NNC(=O)N1Cc2ccccc2Oc2ccc(Cl)cc21 [Example 12, 8-chlorodibenz[b,f][1,4]oxazepine-10(11H)-carboxylic acid, 2-[3-[[(methylamino)carbonyl]amino]-1-oxopropyl]hydrazide]",Example 20>Example 27>Example 12>Example 11>Example 28,ED50 (mice; [4]): 8.4 mg/kg
2000 nM,Active,"O=C(CCNS(=O)(=O)c1ccccc1)NNC(=O)N1Cc2ccccc2Oc2ccc(Cl)cc21 [Example 24, 8-chlorodibenz[b,f][1,4]oxazepine-10(11H)-carboxylic acid, 2-[1-oxo-3-[(phenylsulfonyl)amino]propyl]hydrazide]",,
,,"CCOP(=O)(O)CC(=O)NNC(=O)N1Cc2ccccc2Oc2ccc(Cl)cc21 [Example 27, 8-chlorodibenz[b,f][1,4]oxazepine-10(11H)-carboxylic acid, 2-[(ethoxyhydroxyphosphinyl)acetyl]hydrazide]",Example 20>Example 27>Example 12>Example 11>Example 28,ED50 (mice; [5]): 8.3 mg/kg
,,"O=C(CP(=O)(O)O)NNC(=O)N1Cc2ccccc2Oc2ccc(Cl)cc21 [Example 28, 8-chlorodibenz[b,f][1,4]oxazepine-10(11H)-carboxylic acid, 2-(phosphonoacetyl)hydrazide]",Example 20>Example 27>Example 12>Example 11>Example 28,ED50 (mice; [4]): 11.2 mg/kg
,,O=C(Cc1ccccc1)NNC(=O)N1Cc2ccccc2Oc2ccc(Cl)cc21 [SC-18637],,inhibition of stimulant actions of prostaglandins [2]: inhibit the stimulant actions of prostaglandins on isolated smooth muscle preparations
,,CC(=O)NNC(=O)N1Cc2ccccc2Oc2ccc(Cl)cc21 [SC-19220],,inhibition of stimulant actions of prostaglandins [2]: inhibit the stimulant actions of prostaglandins on isolated smooth muscle preparations; bladder capacity [3]: increased the bladder capacity; voiding efficiency of micturition [3]: reduced the voiding efficiency of micturition

Compound,Kb [1],"PGE antagonism in guinea pig ileum, activity [1]",rank order of potency in the Writhing Assay (mice),also measured
"CCOP(=O)(CC(=O)NNC(=O)N1Cc2ccccc2Oc2ccc(Cl)cc21)OCC [Example 20, 8-chlorodibenz[b,f][1,4]oxazepine-10(11H)-carboxylic acid, 2-[(diethoxyphosphinyl)acetyl]hydrazide]",794 nM,Active,Example 20>Example 27>Example 12>Example 11>Example 28; also recorded: the most potent compound of the invention tested,"ED50 (mice; [5]): 8.2 mg/kg; ED50 (mice; Mus musculus, sc, read-out: PBQ writhing assay ED50, S.C.): 7.1 mg/kg"
